Test results as given in article PMC8999638, “Identification of Entry Inhibitors against Delta and Omicron Variants of SARS-CoV-2” (International Journal of Molecular Sciences, 2022).

Legend:
Assay in all cases: microbe, parasite or virus in culture
Assay type in all cases: cell-based, SARS-CoV-2
[1] = tested on: pseudovirus carrying spike protein of the delta variant; settings: read-out: EC50 (nM) (Delta)
[2] = tested on: pseudovirus carrying spike protein of the alpha variant; settings: read-out: EC50 (nM) (Alpha)
[3] = tested on: pseudovirus carrying spike protein of the beta variant; settings: read-out: EC50 (nM) (Beta)
[4] = tested on: pseudoviruses carrying spike proteins of different variants; settings: Severe acute respiratory syndrome coronavirus 2, read-out: EC50 values against different variants (span)
[5] = tested on: pseudovirus carrying spike protein of the omicron variant; settings: read-out: EC50 (nM) (Omicron)

Structure (SMILES) | EC50 [1] [nM] | EC50 [2] [nM] | EC50 [3] [nM] | EC50 [4] [nM] | EC50 [5] [nM]
Cc1cc(C#N)cc(C)c1Oc1nc(Nc2ccc(C#N)cc2)nc(N)c1Br [Etravirine] | 2.9 | 4.9 | 4.5 | 4.5 to 5.8 | 3
C[C@@H]1CCO[C@H]2Cn3cc(C(=O)NCc4ccc(F)cc4F)c(=O)c(O)c3C(=O)N12 [Dolutegravir sodium] | 3 | 15.8 | 10.2 | 10.2 to 22.9 | 2.6
